The record followed here is patent US4048334A, “Active derivatives of methylamino in therapeutic compositions and methods of use” (priority 1974, dated 1977).

For this assay, the system named is tremorine-induced cholinergic effects. Briefly: Anti-tremorine test (cholinolytic properties in vivo). Also on record: species or system mice (male, OF1 strain); key to peripheral cholinergic effects score (salivation, sweating, weeping): 0: no action; 1: slight action; 2: average action; 3: strong action; 4: very strong action. Here is the method:
For this purpose, the following test was performed with a view to determining the anti-tremorine properties of Compound 1.
When injected into mice, tremorine produces peripheral effects i.e. weeping, sweating, salivation and diarrhoea and central effects i.e. tremor and akinesia. Such effects are due to an increase in the amount of intracerebral acetylcholine and serotonine.
Male mice of the OF1 strain weighing about 22 g were divided into batches of 10. […] Thirty minutes later a dose of 10 mg/kg of tremorine was injected by intraperitoneal route and, at different times after this injection, note was taken of the cholinergic effects on each animal in accordance with the following scale: […]

On to `CCCC(N)(CCC)CCC` [Compound 1], for which the “peripheral cholinergic effects score (salivation, sweating, weeping)” value (5 mg/kg oral, 20, 30 and 40 minutes after tremorine 10 mg/kg i.p.) stood at 4. In addition, under “5 mg/kg oral, identical to the peripheral score (4)”, the “central cholinergic effects (normal and provoked tremor)” value is “Identical results”. Besides, under “mouse, in vivo”, the antitremorine properties result was “devoid of antitremorine properties”.
